For four compounds, MIC results are on record in US4871730A, “Cephem compounds” (Fujisawa Pharmaceutical Co., Ltd., priority 1983, dated 1989).

The structures appear in SMILES notation. Converted amounts (≈) assume the structure as drawn. A value given as a limit tells only on which side of the number the result lay.

For the test, the system named is Escherichia coli 31. The test can be described thus: Minimal inhibitory concentration (MIC), in vitro antibacterial activity by two-fold agar-plate dilution method. It counts as cell-based. The settings on record: heart infusion agar, 37° C, 20 hours. On the procedure: In vitro antibacterial activity was determined by the two-fold agar-plate dilution method as described below.
One loopful of an overnight culture of each test strain in trypticase-soy broth (10^8 viable cells per ml) was streaked on heart infusion agar (HI-agar) containing graded concentrations of representative test compounds, and the minimal inhibitory concentration (MIC) was expressed in terms of μg/ml after incubation at 37° C for 20 hours.

Broadly, the MIC is the least concentration at which growth counts as inhibited. The low end stands for a more susceptible organism, the high end for a less susceptible organism. Take `CO/N=C(\C(=O)NC1C(=O)N2C(C(=O)O)=C(S/C=C\c3cccnc3)CSC12)c1csc(N)n1` (stereo not drawn) [Test compound (2), 7-[2-(2-Aminothiazol-4-yl)-2-methoxyimino-acetamido]-3-[(Z)-2-(3-pyridyl)vinylthio]-3-cephem-4-carboxylic acid (syn isomer)]: the MIC was less than 0.025 µg/mL.
The compound `C=CCO/N=C(\C(=O)NC1C(=O)N2C(C(=O)O)=C(S/C=C\c3cccnc3)CSC12)c1nsc(N)n1` (stereo not drawn) [Test compound (3), 7-[2-Allyloxyimino-2-(5-amino-1,2,4-thiadiazol-3-yl)acetamido]-3-[(Z)-2-(3-pyridyl)vinylthio]-3-cephem-4-carboxylic acid (syn isomer)] returned a minimal inhibitory concentration (MIC) of 0.05 µg/mL (≈ 0.0916 µM).
Regarding `CO/N=C(\C(=O)NC1C(=O)N2C(C(=O)[O-])=C(S/C=C\c3ccc[n+](C)c3)CSC12)c1csc(N)n1` (stereo not drawn) [Test compound (1), 7-[2-(2-Aminothiazol-4-yl)-2-methoxyiminoacetamido]-3-[(Z)-2-(1-methyl-3-pyridinio)-vinylthio]-3-cephem-4-carboxylate (syn isomer)], the MIC was less than 0.025 µg/mL.
Take `CCO/N=C(\C(=O)NC1C(=O)N2C(C(=O)[O-])=C(S/C=C\c3ccc[n+](C)c3)CSC12)c1csc(N)n1` (stereo not drawn) [Test compound (4), 7-[2-(2-Aminothiazol-4-yl)-2-ethoxyiminoacetamido]3-[(Z)-2-(1-methyl-3-piridinio)vinylthio]-3-cephem-4-carboxylate (syn isomer)]: the minimal inhibitory concentration (MIC) is less than 0.025 µg/mL.
